Literature values as cited in patent US11541018B2 (priority 2016, dated 2023).

What was measured:
[1] = active agent (base)
[2] = active agent (base); remark: listed apart in the source

Water solubility [1]: 133 mg/mL | LogP [2]: 2.7
Substance: ropinole
